Earlier results, collected in paper PMC10866072, “Design, synthesis, molecular modelling and biological evaluation of novel 6-amino-5-cyano-2-thiopyrimidine derivatives as potent anticancer agents against leukemia and apoptotic inducers” (Journal of Enzyme Inhibition and Medicinal Chemistry, 2024).

Experiments:
EGFRWT = test system: EGFRWT; parameters: method as in PMID 32959865; details: cited from earlier work
mutant EGFRT790M = test system: mutant EGFRT790M; parameters: method as in PMID 32959865; details: cited from earlier work
caspase-3 in HepG-2 = test system: caspase-3 in HepG-2; parameters: method as in PMID 32959865; details: cited from earlier work
[1] = test system: HCT-116, HepG-2, MCF-7, and A549 cells; parameters: method as in PMID 32959865; details: cited from earlier work
tumour cell lines = test system: tumour cell lines; parameters: method as in PMID 32027179; details: broad spectrum antitumor activity, cited from earlier work

Compound | IC50 (EGFRWT) | IC50 (mutant EGFRT790M) | increase of caspase-3 level compared to the control (caspase-3 in HepG-2) | activity relative to erlotinib [1] | TGI (total growth inhibition) (tumour cell lines) | GI50 (tumour cell lines; read-out: GI50 (median growth inhibition))
CCCCSC1=NC(c2ccccc2)=C(C#N)C(Nc2ccccn2)N1 (stereo not drawn) [Compound XIV] | 0.09 µM | 4.03 µM | 6.5 times | 4.5- to 8.4 fold |  | 
N#CC1=C(c2ccc(F)cc2)N=C(N/N=C/c2c[nH]c3ccccc23)NC1N1CCOCC1 (stereo not drawn) [Compound XVII] |  |  |  |  | 28.66 µM | 6.15 µM
